Earlier results as cited in paper PMC5861163 (European Journal of Nutrition, 2017).

System: human faecal microbiota
Set-up: method as in PMID 26471074
Conditions: after 24 h of fermentation in vitro

Compound: demethoxycurcumin
- degraded by the human faecal microbiota: ≤ 61%

Compound: O=C(/C=C/c1ccc(O)cc1)CC(=O)/C=C/c1ccc(O)cc1 [bisdemethoxycurcumin]
- degraded by the human faecal microbiota: ≤ 87%
